From PMC10253812, “Novel 2-alkythio-4-chloro-N-[imino(heteroaryl)methyl]benzenesulfonamide Derivatives: Synthesis, Molecular Structure, Anticancer Activity and Metabolic Stability” (International Journal of Molecular Sciences, 2023)

Columns and labels:
[1] = test system: HCT-116 (colon cancer) cell line; assay: MTT cell viability assay, HCT-116; type: cell-based; details: Homo sapiens, 72 h of incubation
Experimental: (§1) Compounds 8–24 were evaluated in vitro for their cytotoxic effect against three human cancer cell lines, i.e., HeLa (cervical cancer), HCT-116 (colon cancer) and MCF-7 (breast cancer), and the non-tumor cell line HaCaT using the MTT assay after 72 h of incubation. The results of tests are presented in Table 1 as IC50, indicating the concentration required for 50% inhibition of cell viability. Compounds 8–10 and 14–18 are not presented in the Table 1 because of their low potency (IC50 > 100 µM).
(§2) All chemicals, if not stated otherwise, were obtained from Sigma-Aldrich (St. Louis, MO, USA). The MCF-7, HeLa and HaCaT cell lines were purchased from Cell Lines Services (Eppelheim, Germany), and the HCT-116 cell line was purchased from ATCC (ATCC-No: CCL-247). The cells were cultured in Dulbecco’s modified Eagle’s medium (DMEM) supplemented with 10% fetal bovine serum, 2 mM glutamine, 100 units/mL of penicillin and 100 μg/mL of streptomycin. The cultures were maintained in a humidified atmosphere with 5% CO2 at 37 °C, in an incubator (Heraeus, HeraCell).
(§3) Cytotoxicity assay: Cell viability was determined using the MTT (3-(4,5-dimethylthiazol-2-yl)-2,5diphenyltetrazoliumbromide) assay. The cells were seeded in 96-well plates at a density of 5 × 10^3 cells/well and treated for 24, 48 and 72 h with the examined compounds in the concentration range 1–100 μM. Following treatment, MTT (0.5 mg/mL) was added to the medium, and the cells were further incubated for 2 h at 37 °C. the cells were lysed with DMSO, and the absorbance of the formazan solution was measured at 550 nm with a plate reader (Victor, 1420 multilabel counter). The experiment was performed in triplicate. The values are expressed as the mean ± SD of at least three independent experiments.

[2] = test system: MCF-7 (breast cancer) cell line; assay: MTT cell viability assay, MCF-7; type: cell-based, human; details: MTT assay, 72 h of incubation
Experimental: as §1, §2, §3

[3] = test system: HeLa (cervical cancer) cell line; assay: MTT cell viability assay, HeLa; type: cell-based, human; details: Homo sapiens, HeLa; MTT assay, 72 h of incubation; read-out: IC50 HeLa
Experimental: as §1
The cytotoxic activity of 11–13 was determined in a time-dependent manner with the MTT assay (Figure 3).
HeLa cells were treated with 11, 12 and 13 in the concentration range of 0–20 µM. […] After 48 h, the IC50 values for compounds 11, 12 and 13 were 6, 7 and 6 µM, respectively.
as §2, §3

[4] = test system: HeLa, HCT-116 and MCF-7 cell lines; assay: MTT screening, statements pooled over the three cancer cell lines; type: cell-based; details: Homo sapiens, 72 h, HCT-116, MCF-7, read-out: IC50 (low potency, not shown in Table 1)
Experimental: as §1, §2, §3

[5] = test system: HaCaT (immortalized human keratinocytes); assay: MTT cell viability assay, non-tumor HaCaT; type: cell-based; details: 72 h of incubation, non-tumor cell line
Experimental: as §1
We also performed an assay on the non-tumor cell line HaCaT (immortalized human keratinocytes) to assess if the effect of 11–13 was selective toward HeLa cells or resulted from a more general toxic activity.
as §2, §3

Cc1cc(S(=O)(=O)NC(=N)n2c(=S)[nH]c3ccccc32)c(SCc2cccc3ccccc23)cc1Cl [Compound 24, 4-Chloro-N-[imino-(2-thioxo-2,3-dihydro-1H-benzo[d]imidazol-1-yl)methyl]-5-methyl-2-(naphthalen-1-ylmethylthio)benzenesulfonamide]
IC50 [1]: 21 ± 0.6 µM
IC50 ([2]; Homo sapiens, MCF7): 56 ± 2 µM
IC50 [3]: 33 ± 1 µM

Cc1cc(S(=O)(=O)NC(=N)n2c(=S)[nH]c3ccccc32)c(SCc2ccccc2)cc1Cl [Compound 19, 2-Benzylthio-4-chloro-5-methyl-N-[imino-(2-thioxo-2,3-dihydro-1H-benzo[d]imidazol-1-yl)methyl]benzenesulfonamide]
IC50 [1]: 36 ± 1 µM
IC50 ([2]; Homo sapiens, MCF7): 82 ± 4 µM
IC50 [3]: 60 ± 3 µM

Cc1cc(S(=O)(=O)NC(=N)n2ccn(C)c2=S)c(SCc2cccc(C(F)(F)F)c2)cc1Cl [Compound 9, 4-Chloro-N-[imino(3-methyl-2-thioxo-2,3-dihydro-1H-imidazol-1-yl)methyl]-5-methyl-2-(3-trifluoromethylbenzylthio)benzenesulfonamide]
IC50 [4]: > 100 µM

Cc1cc(S(=O)(=O)NC(=N)n2ccn(C)c2=S)c(SCc2ccccc2)cc1Cl [Compound 8, 2-Benzylthio-4-chloro-N-[imino(3-methyl-2-thioxo-2,3-dihydro-1H-imidazol-1-yl)methyl]-5-methylbenzenesulfonamide]
IC50 [4]: > 100 µM

Cc1cc(S(=O)(=O)NC(=N)n2c(=S)[nH]c3ccccc32)c(SCc2cccc(C(F)(F)F)c2)cc1Cl [Compound 20, 4-Chloro-N-[imino-(2-thioxo-2,3-dihydro-1H-benzo[d]imidazol-1-yl)methyl]-5-methyl-2-(3-trifluoromethylbenzylthio)benzenesulfonamide]
IC50 [1]: 17 ± 0.5 µM
IC50 ([2]; Homo sapiens, MCF7): 49 ± 1 µM
IC50 [3]: 43 ± 1 µM

Cc1cc(S(=O)(=O)NC(=N)n2ccn(C)c2=S)c(SCc2ccc(C(F)(F)F)cc2)cc1Cl [Compound 10, 4-Chloro-N-[imino(3-methyl-2-thioxo-2,3-dihydro-1H-imidazol-1-yl)methyl]-5-methyl-2-(4-trifluoromethylbenzylthio)benzenesulfonamide]
IC50 [4]: > 100 µM

CCOC(=O)CSc1cc(Cl)c(C)cc1S(=O)(=O)NC(=N)n1ccn(C)c1=S [Compound 14, 4-Chloro-2-ethoxycarbonylmethylthio-N-[imino(3-methyl-2-thioxo-2,3-dihydro-1H-imidazol-1-yl)methyl]-5-methylbenzenesulfonamide]
IC50 [4]: > 100 µM

Cc1cc(S(=O)(=O)NC(=N)n2c(=S)[nH]c3ccccc32)c(SCc2ccc(Cl)cc2)cc1Cl [Compound 22, 4-Chloro-2-(4-chlorobenzylthio)-N-[imino-(2-thioxo-2,3-dihydro-1H-benzo[d]imidazol-1-yl)methyl]-5-methylbenzenesulfonamide]
IC50 [1]: 27 ± 0.5 µM
IC50 ([2]; Homo sapiens, MCF7): 73 ± 2 µM
IC50 [3]: 49 ± 2 µM

Cc1cc(S(=O)(=O)NC(=N)n2ncn(C)c2=S)c(SCc2ccccc2)cc1Cl [Compound 15, 2-Benzylthio-4-chloro-5-methyl-N-[imino(4-methyl-5-thioxo-4,5-dihydro-1H-1,2,4-triazol-1-yl)methyl]benzenesulfonamide]
IC50 [4]: > 100 µM

Cc1cc(S(=O)(=O)NC(=N)n2c(=S)[nH]c3ccccc32)c(SCc2ccc(C(F)(F)F)cc2)cc1Cl [Compound 21, 4-Chloro-N-[imino-(2-thioxo-2,3-dihydro-1H-benzo[d]imidazol-1-yl)methyl]-5-methyl-2-(4-trifluoromethylbenzylthio)benzenesulfonamide]
IC50 [1]: 23 ± 0.2 µM
IC50 ([2]; Homo sapiens, MCF7): 62 ± 3 µM
IC50 [3]: 52 ± 1 µM

Cc1cc(S(=O)(=O)NC(=N)n2ncn(C)c2=S)c(SCc2ccc(C(F)(F)F)cc2)cc1Cl [Compound 17, 4-Chloro-N-[imino(4-methyl-5-thioxo-4,5-dihydro-1H-1,2,4-triazol-1-yl)methyl]-5-methyl-2-(4-trifluoromethylbenzylthio)benzenesulfonamide]
IC50 [4]: > 100 µM

Cc1cc(S(=O)(=O)NC(=N)n2ncn(C)c2=S)c(SCc2ccc(Cl)cc2)cc1Cl [Compound 18, 4-Chloro-2-(4-chlorobenzylthio)-N-[imino(4-methyl-5-thioxo-4,5-dihydro-1H-1,2,4-triazol-1-yl)methyl]5-methylbenzenesulfonamide]
IC50 [4]: > 100 µM

Cc1cc(S(=O)(=O)NC(=N)n2c(=S)[nH]c3ccccc32)c(SCc2cc3c(cc2Cl)OCO3)cc1Cl [Compound 23, 4-Chloro-2-(6-chlorobenzo [1,3]dioxol-5-ylmethylthio)-N-[imino-(2-thioxo-2,3-dihydro-1H-benzo[d]imidazol-1-yl)methyl]-5-methylbenzenesulfonamide]
IC50 [1]: 34 ± 0.3 µM
IC50 ([2]; Homo sapiens, MCF7): 50 ± 2 µM
IC50 [3]: 57 ± 1 µM

N.N.[Cl][Pt][Cl] [Cisplatin, reference compound]
IC50 [2]: 3 ± 0.1 µM
IC50 [5]: 7.7 ± 0.2 µM
